Measured values taken from patent US20250255847A1, “[…]s: Novel Drugs for Triple Negative Breast Cancer” (SIMMARON RSEARCH INC, priority 2024, published 2025).

Columns and labels:
[1] = system: STAT3-dependent tumor-promoting genes; assay: Gene array of 66 STAT3-dependent tumor-promoting genes in PDX tumors; type: in vivo, mouse; conditions: tumor tissue; for number of the 66 STAT3-dependent genes strongly downregulated: out of 66 genes
Method: FIG. 15 illustrates an embodiment of the present invention and illustrates SIM 1 and 2 inhibited Y705P phosphorylation of STAT3 and the expressions of STAT3-dependent tumor supportive genes. (A) DAB immunostaining of Y705P STAT3 in tumor parenchyma of all three groups. (B) Quantitative analysis of Y705P STAT3-ir cells was performed by counting Y705P STAT3 cells in 15 different images, converting into a percent scale, and then plotting in a scatter histogram. On-way ANOVA followed by multiple comparison test indicated ****p<0.0001 versus control. (C) DAB immunostaining of S727P STAT3 followed by a (D) quantitative analysis of S727P STAT3-ir cells was performed in 15 different images and then plotted as a percent of total cells by a scatter histogram. On-way ANOVA represents no significance (NS) between groups. (E) Immunoblot analyses of Y705PSTAT3 (Rabbit […] antibody Cat #710093; Invitrogen), S727PSTAT3 (Mouse 1° antibody cat #MA5-15208; Invitrogen) followed by normalization with loading control β-actin (Mouse 1° antibody cat #MA1-744; Invitrogen). (F) A cDNA-based gene array of 66 STAT3-dependent tumor promoting genes were analyzed in TNBC tumors of vehicle-, SIM-1-, and SIM-2-treated mice. (G) A scatter plot summarized the gene array results. Based on the relative levels of expressions, gene levels were classified as low, moderate, and highly expressed. Results are confirmed after three different experiments.
These genes include anti-apoptotic genes such as bcl-2, survivin, and bcl-xl; cell cycle progression markers such as cyclin D1, akt, and p21.

[2] = biological target: T1, DNA binding activity of STAT3 (Homo sapiens, UniProt P40763); assay: Electrophoretic mobility shift assay (EMSA) in nuclear extracts; type: cell-based; conditions: EGF (20 ng/mL)-stimulated MDA-MB-468 nuclear extract, SIM-1 20 nM (FIG. 9B)
T1 construct: endogenous in cells; host or cells: MDA-MB-468 (nuclear extract)
T1 sequence (P40763 2-770 limits assumed): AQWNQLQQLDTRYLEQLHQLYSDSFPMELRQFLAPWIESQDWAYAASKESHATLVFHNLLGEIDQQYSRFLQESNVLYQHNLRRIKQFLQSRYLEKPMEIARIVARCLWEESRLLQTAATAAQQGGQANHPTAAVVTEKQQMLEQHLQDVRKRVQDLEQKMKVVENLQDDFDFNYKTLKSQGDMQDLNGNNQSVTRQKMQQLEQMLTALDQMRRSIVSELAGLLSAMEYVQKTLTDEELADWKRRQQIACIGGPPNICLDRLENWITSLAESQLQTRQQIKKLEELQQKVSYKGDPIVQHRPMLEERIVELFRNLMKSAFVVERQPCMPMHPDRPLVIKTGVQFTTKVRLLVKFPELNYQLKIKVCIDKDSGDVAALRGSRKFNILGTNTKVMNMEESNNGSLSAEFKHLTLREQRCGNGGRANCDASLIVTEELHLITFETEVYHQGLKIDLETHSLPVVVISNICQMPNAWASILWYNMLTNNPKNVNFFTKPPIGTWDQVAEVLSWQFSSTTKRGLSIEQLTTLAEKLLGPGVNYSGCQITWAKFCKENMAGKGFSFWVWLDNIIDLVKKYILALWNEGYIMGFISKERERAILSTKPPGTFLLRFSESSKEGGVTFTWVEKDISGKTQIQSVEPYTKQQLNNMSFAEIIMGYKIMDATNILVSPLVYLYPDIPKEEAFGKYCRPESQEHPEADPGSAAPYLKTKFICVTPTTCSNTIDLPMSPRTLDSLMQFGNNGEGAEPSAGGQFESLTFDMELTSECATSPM
Method: FIG. 9 illustrates an embodiment of the present invention and illustrates promoter recruitment assay of STAT3 in IL6 promoter. (A) MDA-MB-468 cells were treated with 5, 10, and 20 ng/mL doses of EGF for 5 hrs followed by immunoblot (IB) analyses of Y705 phospho and S727 phospho STAT3 in nuclear extracts. Histone 3 ([…]) IB was run as control. (B) EMSA analyses were performed in nuclear extracts of EGF (20 ng/mL)- and EGF+SIM-1 (20 nM)-treated MDA-MB-468 cells against the STAT3-specific oligonucleotide probe (Li-Cor bioscience; Cat #P/N: 829-07922) or SEQ ID NO: 1 and resolved in 6% DNA retardation gel (Invitrogen). (C) Chromatin immunoprecipitation assay was performed in the nuclear extracts of MDA-MB-468 cells treated with EGF or EGF+SIM-1 for 5 hrs. Y705P STAT3 antibody was used for chromatin immunoprecipitation and IgG precipitation was performed as a control.
Electrophoretic Mobility Shift Assay (EMSA). EMSA was performed in […] as described before. […] were treated with 25 ng/mL EGF alone or together with SIM1 (5 nM) for 5 hrs followed by nuclear fractionation with nuclear extraction kit (Abcam). […]

CCOC(=O)c1c(NC(C)=O)sc2c(Cl)c(/C=N/O)ccc12 [SIM-2, ethyl 2-acetamido-7-chloro-6-(hydroxyiminomethyl)-1-benzothiophene-3-carboxylate]
number of the 66 STAT3-dependent genes strongly downregulated [1]: 55 | tumor growth suppressor gene p53 expression [1]: significantly upregulated

O=C(O)CCC(=O)NCc1csc2ccc(Cl)cc12 [SIM-1, 4-[(5-chloro-1-benzothiophen-3-yl)methylamino]-4-oxobutanoic acid]
number of the 66 STAT3-dependent genes strongly downregulated [1]: 55 | tumor growth suppressor gene p53 expression [1]: significantly upregulated | DNA binding activity of STAT3 [2]: markedly inhibited
